pIC50: −log10 of the molar value. Where a name gives a salt, the structure may show the parent alone.
Tests used:
[1] = Competitive stability study (slurry of Forms I-VI, XRPD); format: physicochemical; conditions: 2 days, room temperature
Method: To evaluate the transformation of Compound 1 phosphate solid forms, competitive slurry experiments were performed as follows: to a saturated solution (1.5 mL) of Compound 1 phosphate Form I in the solvent as listed in Table 14 was added Form I (6 mg), followed by stirring to give a cloudy solution, then 6 mg each of Form II through Form VI were added to the mixture. The slurry was stirred for 2 days at room temperature and analyzed by XRPD.

[2] = molecular target: T1, Pim-1 (Homo sapiens, UniProt P11309); experiment: Pim-1 kinase assay; format: biochemical; conditions: 1 mM ATP; read-out: IC50 PIM1 Enzyme (Ex. A)
T1 construct: purchased Invitrogen PV3503
Method: Pim-1 and Pim-3 kinase assays—20 μL reactions can be run in white 384 well polystyrene plates dotted with 0.8 μL compound/DMSO in the assay buffer (50 mM Tris, pH 7.5, 0.01% Tween-20, 5 mM MgCl2, 0.01% BSA, 5 mM DTT), containing 0.05 μM Biotin-labeled BAD peptide substrate (AnaSpec 62269), 1 mM ATP, and 2.5 pM (Pim-1, Invitrogen PV3503) or 1.25 pM (Pim-3, Millipore 14-738) enzyme for 1 h at 25° C. Reactions are stopped by addition of 10 μL STOP Buffer (150 mM Tris, pH=7.5, 150 mM NaCl, 75 mM EDTA, 0.01% Tween-20, 0.3% BSA) supplemented with Phospho-Bad (Ser112) Antibody (Cell Signaling 9291) diluted 666-fold, and Streptavidin donor beads (PerkinElmer 6760002) along with Protein-A acceptor beads (PerkinElmer 6760137) at 15 μg/mL each. Supplementation of the STOP buffer with beads and stopping the reactions are done under reduced light. Prior to the stopping reactions STOP buffer with beads is pre-incubated for 1 h in the dark at room temperature. After stopping the reactions, plates are incubated for 1 h in the dark at room temperature before reading on a PHERAstar FS plate reader (BMG Labtech) under reduced light.

[3] = molecular target: T2, Pim-2 (Homo sapiens, UniProt Q9P1W9); experiment: Pim-2 kinase assay; format: biochemical; conditions: 1 mM ATP; read-out: IC50 PIM2 Enzyme (Ex. A)
T2 construct: purchased Invitrogen PV3649
Method: Pim-2 kinase assay—20 μL reactions are run in white 384 well polystyrene plates dotted with 0.8 μL compound/DMSO in the assay buffer (50 mM Tris, pH 7.5, 0.01% Tween-20, 5 mM MgCl2, 0.01% BSA, 5 mM DTT), containing 0.05 μM Fluorescein-labeled CREBtide peptide substrate (Invitrogen PV3508), 1 mM ATP, and 1 nM enzyme (Invitrogen PV3649) for 2 h at 25° C. Reactions are stopped by addition of 10 μL TR-FRET Dilution Buffer (Invitrogen PV3574) with 30 mM EDTA and 1.5 nM LanthaScreen Tb-CREB pSer133 antibody (Invitrogen PV3566). After 30 min. incubation at room temperature, plates are read on a PHERAstar FS plate reader (BMG Labtech).

[4] = molecular target: Pim-3 (Homo sapiens, UniProt Q86V86); experiment: Pim-3 kinase assay; format: biochemical; conditions: 1 mM ATP; read-out: IC50 PIM3 Enzyme (Ex. A)
[5] = tested on: KMS12BM cells; experiment: Pim cell proliferation assay ([3H]-thymidine), KMS12BM; format: cell-based; conditions: Homo sapiens, KMS-12-BM; read-out: IC50 Tumor cell proliferation (Ex. B, KMS12BM cells)
Method: (§1) KM[…] and MOLM16 cells were purchased from DSMZ (Germany) and were maintained according to the recommendations of suppliers. To measure the anti-proliferation activities of test compounds, the cells were plated in their respective culture medium (2×10^3 cells/200 μL/well) into 96-well ultralow binding plates (Corning), with or without test compound(s). After 3 to 4 days, [3H]-thymidine (1 μCi/well) (PerkinElmer) in PBS (10 μL) was then added to the cell culture for an additional 12 hours before the incorporated radioactivity was separated by filtration with water through GF/B filters (Packard Bioscience) and measured by liquid scintillation counting with a TopCount (Packard Bioscience).

[6] = tested on: MOLM16 cells; experiment: Pim cell proliferation assay ([3H]-thymidine), MOLM16; format: cell-based; conditions: read-out: IC50 Tumor cell proliferation (Ex. B, MOLM16 cells)
Method: as §1

[7] = tested on: pBAD in KMS12BM cells; experiment: Pim pBAD signaling assay in KMS12BM cells; format: cell-based; conditions: Homo sapiens, KMS-12-BM, 2.5 hours, read-out: IC50 pBAD KMS12BM cells (Ex. B)
[8] = tested on: pBAD in KMS12BM cells; experiment: pBAD signaling assay in human whole blood, KMS12BM cells; format: cell-based; conditions: KMS-12-BM, read-out: IC50 pBAD whole blood (Ex. B, KMS12BM cells)
[9] = tested on: pBAD in MOLM-16 cell; experiment: pBAD signaling assay in human whole blood, MOLM16 cells; format: cell-based; conditions: read-out: IC50 pBAD whole blood (Ex. B, MOLM16 cells)
[10] = Stability study of Form I under environmental conditions (XRPD); format: physicochemical
Text: Compound 1 phosphoric acid salt Form I was subjected to various different environmental conditions to assess stability.

[11] = Stability study under phase equilibration conditions (XRPD); format: physicochemical; conditions: 2-3 days, all solvents and solvent mixtures tested
Method: Phase equilibration studies were designed to provide information on a predominant crystal form for phase identification. Compound 1 phosphoric acid salt (Form I) was equilibrated in a representative group of solvents at 25±1° C. (chloroform, DMF, 1,4-dioxane, methanol and methanol/20% water, 2-methoxyethanol and 2-methoxyethanol/20% water, MIBK, THF and THF/20% water, acetone, n-BuOH and n-BuOH/20% water, EtOH and EtOH/20% water, isobutyl acetate, 1-propanol and 1-propanol/20% water, isopropanol, water, and MEK) and 50±1° C. (chloroform, DMF, 1,4-dioxane, methanol and methanol/20% water, 2-methoxyethanol and 2-methoxyethanol/20% water, MIBK, THF and THF/20% water, acetone, n-BuOH and n-BuOH/20% water, EtOH and EtOH/20% water, EtOAc, ethyl formate, 1-propanol and 1-propanol/20% water, isopropanol, IPA/MeOH/Water (1.73/0.79/0.08), IPA/water (3/2), water) controlled by IKA® ETS-D5 temperature controller and IKA® RCT basic safety control.
To 3 mL of a solvent or a mixture of solvents (chosen from a list for the respective temperature) was added Compound 1 phosphate (Form I) until a cloudy solution was obtained, then, about 30 mg of Compound 1 phosphate (Form I) was added to the cloudy solution. The mixture was stirred at 25±1° C. or 50±1° C., respectively, for 2-3 days. The solid was filtered and analyzed by XRPD. […]

[12] = molecular target: PIM kinase; experiment: Pim enzyme assays (isoform not given); format: biochemical; conditions: 1 mM ATP; Pim isoform not stated

T1 sequence (P11309 whole entry): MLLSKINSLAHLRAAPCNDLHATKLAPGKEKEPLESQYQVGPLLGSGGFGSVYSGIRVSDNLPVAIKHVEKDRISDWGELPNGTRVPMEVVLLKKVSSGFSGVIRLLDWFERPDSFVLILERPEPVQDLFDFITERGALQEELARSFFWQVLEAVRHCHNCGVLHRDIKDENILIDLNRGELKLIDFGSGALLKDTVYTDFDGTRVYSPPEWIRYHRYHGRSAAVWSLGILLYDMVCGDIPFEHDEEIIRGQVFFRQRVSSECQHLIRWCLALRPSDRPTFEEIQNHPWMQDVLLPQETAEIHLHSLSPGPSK
T2 sequence (Q9P1W9 whole entry): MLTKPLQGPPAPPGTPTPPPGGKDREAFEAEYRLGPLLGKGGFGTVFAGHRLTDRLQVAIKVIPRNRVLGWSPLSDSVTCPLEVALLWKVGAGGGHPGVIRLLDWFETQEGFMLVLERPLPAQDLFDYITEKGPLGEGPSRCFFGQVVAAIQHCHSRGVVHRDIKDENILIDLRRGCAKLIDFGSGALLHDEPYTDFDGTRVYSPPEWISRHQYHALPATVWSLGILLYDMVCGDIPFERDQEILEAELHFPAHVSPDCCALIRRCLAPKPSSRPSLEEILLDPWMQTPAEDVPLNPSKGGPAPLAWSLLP

SMILES: C[C@H]1CN(c2c(NC(=O)c3ccc(F)c(-c4c(F)cccc4F)n3)cnc3c2CC[C@H]3O)C[C@@H](N)[C@@H]1O [Compound 1 H3PO4 salt, N-{(7R)-4-[(3R,4R,5S)-3-amino-4-hydroxy-5-methylpiperidin-1-yl]-7-hydroxy-6,7-dihydro-5H-cyclopenta[b]pyridin-3-yl}-6-(2,6-difluorophenyl)-5-fluoropyridine-2-carboxamide phosphoric acid salt]
- Solid state form ([1]; IPA/MeOH/water/DMSO (56.6/28.3/3.0/12.1)): Form I
- Solid state form ([1]; IPA/MeOH/water/DMSO (61.8/28.2/2.9/7.1)): Form I

SMILES: C[C@H]1CN(c2c(NC(=O)c3ccc(F)c(-c4c(F)cccc4F)n3)cnc3c2CC[C@H]3O)C[C@@H](N)[C@@H]1O [Compound 1 di-HCl salt, N-{(7R)-4-[(3R,4R,5S)-3-amino-4-hydroxy-5-methylpiperidin-1-yl]-7-hydroxy-6,7-dihydro-5H-cyclopenta[b]pyridin-3-yl}-6-(2,6-difluorophenyl)-5-fluoropyridine-2-carboxamide dihydrochloride]
- pIC50 [2]: > 7.46
- pIC50 [3]: > 7.46
- pIC50 [4]: > 7.46
- pIC50 [5]: > 7.00
- pIC50 [6]: > 7.46
- pIC50 [7]: > 7.46
- pIC50 [8]: > 6.70
- pIC50 [9]: > 7.00

SMILES: C[C@H]1CN(c2c(NC(=O)c3ccc(F)c(-c4c(F)cccc4F)n3)cnc3c2CC[C@H]3O)C[C@@H](N)[C@@H]1O [Compound 1 phosphoric acid salt Form I, N-{(7R)-4-[(3R,4R,5S)-3-amino-4-hydroxy-5-methylpiperidin-1-yl]-7-hydroxy-6,7-dihydro-5H-cyclopenta[b]pyridin-3-yl}-6-(2,6-difluorophenyl)-5-fluoropyridine-2-carboxamide phosphoric acid salt]
- Crystalline Form (XRPD) ([10]; 40° C./75% RH for 1 week): Form I
- Crystalline Form (XRPD) ([10]; 50° C. vacuum dry for 1 day): Form I
- Crystalline Form (XRPD) ([10]; 100° C. vacuum dry for 1 day): Form I
- Crystalline Form (XRPD) ([10]; 210° C. vacuum dry followed by 40° C./75% RH for 4 weeks): Form I
- Crystalline Form (XRPD) ([10]; 210° C. vacuum dry for 20 min): Not Form I
- Crystalline Form (XRPD) ([10]; Suspension in 0.5% methyl cellulose in water): Form I
- Solid form after phase equilibration (XRPD) ([11]; 25±1° C.): Form I
- Solid form after phase equilibration (XRPD) ([11]; 50±1° C.): Form I

SMILES: C[C@H]1CN(c2c(NC(=O)c3ccc(F)c(-c4c(F)cccc4F)n3)cnc3c2CC[C@H]3O)C[C@@H](N)[C@@H]1O [Compound 1, N-{(7R)-4-[(3R,4R,5S)-3-amino-4-hydroxy-5-methylpiperidin-1-yl]-7-hydroxy-6,7-dihydro-5H-cyclopenta[b]pyridin-3-yl}-6-(2,6-difluorophenyl)-5-fluoropyridine-2-carboxamide]
- pIC50 [12]: > 7.00
